Data taken from ChEMBL document CHEMBL1139066, “Analogues of 2-crotonyloxymethyl-(4R,5R,6R)-4,5,6-trihydroxycyclohex-2-enone (COTC) with anti-tumor properties” (Bioorg Med Chem Lett, 2007).

How the values were obtained:
[1] = test system: A549; test: Cytotoxicity against human A549 cells by MTT assay; format: functional, cell-based
[2] = test system: NCI-H460; test: Cytotoxicity against human H460 cells by MTT assay; format: functional, cell-based

| SMILES | IC50 [1] [µM] | IC50 [2] [µM] |
| --- | --- | --- |
| C/C=C/C(=O)OCC1=C[C@H]2O[C@](C)(OC)[C@@](C)(OC)O[C@@H]2CC1=O | 32 | 60 |
| C/C=C/C(=O)OCC1=C[C@H]2O[C@](C)(OC)[C@@](C)(OC)O[C@@H]2[C@H](F)C1=O | 31 | 43 |
| C/C=C/C(=O)OCC1=C[C@@H](O)[C@H](O)[C@H](F)C1=O | 164 | > 200 |
| C/C=C/C(=O)OCC1=CCCCC1=O | 55 | 40 |
| C/C=C/C(=O)OCC1=C[C@@H](O)[C@H](O)CC1=O | 147 | 158 |
| C/C=C/C(=O)OCC1=CC(O)CCC1=O (configuration not stated) | 24 | 10 |
